Data reported in patent publication US20110136842A1, “Substituted Dihydroisoquinolinone and Isoquinolinedione Derivatives as Calcium Channel Blockers” (priority 2008, published 2011).

Target: T1, Human Cav2.2 channels (Homo sapiens, UniProt Q00975)
T1 construct: expressed in transfected cells
Assay: Fluorescent assay for Cav2.2 channels using potassium depolarization to initiate channel opening
Assay type: cell-based
Settings: assay of Example 1 in the presence of 30 mM potassium (inactivated channel state)
Text: Human Cav2.2 channels were stably expressed in HEK293 cells along with alpha2-delta and beta subunits of voltage-gated calcium channels. An inwardly rectifying potassium channel (Kir2.3) was also expressed in these cells to allow more precise control of the cell membrane potential by extracellular potassium concentration. At low bath potassium concentration, the membrane potential is relatively negative, and is depolarized as the bath potassium concentration is raised. In this way, the bath potassium concentration can be used to regulate the voltage-dependent conformations of the channels. Compounds are incubated with cells in the presence of low (4 mM) potassium or elevated (12, 25 or 30 mM) potassium to determine the affinity for compound block of resting (closed) channels at 4 mM potassium or affinity for block of open and inactivated channels at 12, 25 or 30 mM potassium. After the incubation period, Cav2.2 channel opening is triggered by addition of higher concentration of potassium (70 mM final concentration) to further depolarize the cell. The degree of state-dependent block can be estimated from the inhibitory potency of compounds after incubation in different potassium concentrations.
Calcium influx through Cav2.2 channels is determined using a calcium-sensitive fluorescent dye in combination with a fluorescent plate reader. Fluorescent changes were measured with either a VIPR (Aurora Instruments) or FLIPR (Molecular Devices) plate reader.
• 1. Seed cells in Poly-D-Lysine Coated 96- or 384-well plate and keep in a 37° C.-10% CO2 incubator overnight • 2. Remove media, wash cells with 0.2 mL (96-well plate) or 0.05 mL (384-well plate) Dulbecco's Phosphate Buffered Saline (D-PBS) with calcium & magnesium (Invitrogen; 14040) • 3. […] Read cell plate on VIPR instrument, Excitation=480 nm, Emission=535 nm • 9. With VIPR continuously reading, add 0.1 mL (96-well plate) or 0.03 mL (384-well plate) of Depolarization Buffer, which is 2× the final assay concentration, to the cell plate.

T1 sequence (Q00975 whole entry): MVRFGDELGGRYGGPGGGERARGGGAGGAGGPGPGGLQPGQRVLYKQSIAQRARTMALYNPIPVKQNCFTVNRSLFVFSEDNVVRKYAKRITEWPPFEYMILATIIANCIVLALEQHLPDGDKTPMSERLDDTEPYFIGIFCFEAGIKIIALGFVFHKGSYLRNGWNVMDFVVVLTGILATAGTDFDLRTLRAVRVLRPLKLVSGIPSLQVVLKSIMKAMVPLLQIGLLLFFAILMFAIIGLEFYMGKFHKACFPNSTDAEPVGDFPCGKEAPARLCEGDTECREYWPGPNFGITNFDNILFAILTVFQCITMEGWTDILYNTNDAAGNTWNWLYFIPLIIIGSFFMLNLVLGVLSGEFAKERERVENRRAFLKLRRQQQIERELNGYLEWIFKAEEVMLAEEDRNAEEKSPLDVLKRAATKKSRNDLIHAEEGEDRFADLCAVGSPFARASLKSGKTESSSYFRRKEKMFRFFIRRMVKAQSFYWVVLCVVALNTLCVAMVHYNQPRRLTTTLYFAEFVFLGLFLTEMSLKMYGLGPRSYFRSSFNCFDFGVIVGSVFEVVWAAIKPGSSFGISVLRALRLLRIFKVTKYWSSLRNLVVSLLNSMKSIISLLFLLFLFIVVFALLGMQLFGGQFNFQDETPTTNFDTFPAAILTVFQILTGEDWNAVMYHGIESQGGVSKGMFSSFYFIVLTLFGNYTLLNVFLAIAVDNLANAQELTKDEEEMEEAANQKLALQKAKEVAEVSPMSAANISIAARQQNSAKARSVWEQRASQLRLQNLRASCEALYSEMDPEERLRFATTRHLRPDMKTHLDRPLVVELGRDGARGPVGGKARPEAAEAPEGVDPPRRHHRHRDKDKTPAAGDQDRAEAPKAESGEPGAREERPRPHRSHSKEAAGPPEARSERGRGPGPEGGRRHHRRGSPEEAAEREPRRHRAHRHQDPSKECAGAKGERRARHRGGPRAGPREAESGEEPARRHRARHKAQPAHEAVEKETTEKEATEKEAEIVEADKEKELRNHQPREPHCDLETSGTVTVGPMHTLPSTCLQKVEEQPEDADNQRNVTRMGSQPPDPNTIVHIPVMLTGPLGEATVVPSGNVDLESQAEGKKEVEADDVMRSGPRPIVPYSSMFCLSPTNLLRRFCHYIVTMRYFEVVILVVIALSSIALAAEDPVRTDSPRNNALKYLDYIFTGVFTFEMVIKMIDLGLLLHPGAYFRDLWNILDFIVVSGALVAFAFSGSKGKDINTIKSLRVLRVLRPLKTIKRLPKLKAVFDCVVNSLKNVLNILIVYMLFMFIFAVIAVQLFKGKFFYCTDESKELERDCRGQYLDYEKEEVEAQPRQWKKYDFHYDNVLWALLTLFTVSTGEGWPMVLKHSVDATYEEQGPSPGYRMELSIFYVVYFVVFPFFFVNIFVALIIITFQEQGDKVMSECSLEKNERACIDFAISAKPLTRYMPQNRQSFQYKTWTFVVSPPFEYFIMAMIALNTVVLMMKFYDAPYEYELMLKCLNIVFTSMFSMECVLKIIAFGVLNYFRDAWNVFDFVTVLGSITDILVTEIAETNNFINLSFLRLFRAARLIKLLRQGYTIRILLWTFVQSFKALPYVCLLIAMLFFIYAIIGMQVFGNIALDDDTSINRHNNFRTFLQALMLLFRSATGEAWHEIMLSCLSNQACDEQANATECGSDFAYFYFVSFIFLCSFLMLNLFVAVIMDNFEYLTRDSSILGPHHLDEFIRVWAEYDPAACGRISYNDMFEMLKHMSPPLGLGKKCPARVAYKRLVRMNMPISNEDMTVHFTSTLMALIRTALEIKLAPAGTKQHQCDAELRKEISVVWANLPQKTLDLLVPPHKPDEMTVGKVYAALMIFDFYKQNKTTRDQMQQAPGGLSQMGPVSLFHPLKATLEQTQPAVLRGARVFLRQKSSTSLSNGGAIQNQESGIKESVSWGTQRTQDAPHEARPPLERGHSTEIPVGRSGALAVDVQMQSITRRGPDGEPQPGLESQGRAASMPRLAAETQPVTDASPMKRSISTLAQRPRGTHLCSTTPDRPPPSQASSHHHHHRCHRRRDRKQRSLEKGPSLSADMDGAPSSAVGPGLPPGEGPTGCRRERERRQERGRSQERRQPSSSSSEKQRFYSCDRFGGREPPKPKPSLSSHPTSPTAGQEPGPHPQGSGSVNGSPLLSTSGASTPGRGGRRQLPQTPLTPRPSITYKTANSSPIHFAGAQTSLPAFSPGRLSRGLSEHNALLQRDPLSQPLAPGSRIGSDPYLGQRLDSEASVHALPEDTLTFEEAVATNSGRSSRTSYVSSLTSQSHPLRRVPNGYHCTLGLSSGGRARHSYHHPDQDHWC

| IC50 | SMILES |
| --- | --- |
| 230 nM | CC1(Cc2cc(F)cc(F)c2F)C(=O)NCc2ccc(-c3cccc(OCC(F)(F)F)c3)cc21 (stereo not drawn) [Example 1, 4-methyl-4-(2,3,5-trifluorobenzyl)-6-[3-(2,2,2-trifiuoroethoxy)phenyl]-1,4-dihydroisoquinolin-3(2H)-one] |
| 260 nM | CC1(Cc2cc(F)cc(F)c2F)C(=O)NC(=O)c2ccc(-c3cccc(OCC(F)(F)F)c3)cc21 (stereo not drawn) [Example 2, 4-methyl-4-(2,3,5-trifluorobenzyl)-6-[3-(2,2,2-trifluoroethoxy)phenyl]isoquinoline-1,3(2H,4H)-dione] |
| 20 nM | Cn1cnc(N2Cc3ccc(-c4cccc(OCC(F)(F)F)c4)cc3C(C)(Cc3cc(F)cc(F)c3F)C2=O)c1 (stereo not drawn) [Example 3, 4-methyl-2-(1-methyl-1H-imidazol-4-yl)-4-(2,3,5-trifluorobenzyl)-6-[3-(2,2,2-trifiuoroethoxy)phenyl]-1,4-dihydroisoquinolin-3(2H)-one] |
